In general, IC50 refers to the midpoint of a concentration-inhibition curve. Higher therefore signals a need for much substance. The term logP denotes the decadic logarithm of the partition coefficient of the neutral form, usually between octanol and water.

The values below come from ChEMBL document CHEMBL5038584, “Dual-Targeting Antiproliferation Hybrids Derived from 1-Deoxynojirimycin and Kaempferol Induce MCF-7 Cell Apoptosis through the Mitochondria-Mediated Pathway” (J Nat Prod, 2021).

Series [1] relates to MCF7. As to the kind of experiment: Cytotoxicity against human MCF7 cells measured after 48 hrs by MTT assay. Type of series: functional, cell-based. To be noted: MCF7, 48 h. On the technique in general: Formazan colour is commonly taken as a measure of viable cells.
Series [2] deals with HCC1937. The series is described as follows: Cytotoxicity against human HCC1937 cells measured after 48 hrs by MTT assay. Type of series: functional, cell-based. To be noted: HCC1937, 48 h.
For series [3], the system named is BGC-823. As to the kind of experiment: Cytotoxicity against human BGC-823 cells measured after 48 hrs by MTT assay. To be noted: BGC-823, 48 h. Type of series: functional, cell-based.
Series [4] deals with HCT-116. The series is described as follows: Cytotoxicity against human HCT-116 cells measured after 48 hrs by MTT assay. Format: functional, cell-based. To be noted: HCT-116, 48 h.
A short description of series [5]: Lipophilicity, logP of compound by shake flask method. Type of series: physicochemical. The following applies: octanol/water.
The test system of series [6] is A549. The series is described as follows: Cytotoxicity against human A549 cells measured after 48 hrs by MTT assay. Format: functional, cell-based. The following applies: A549, 48 h.
The subject of series [7] is HepG2. The series is described as follows: Cytotoxicity against human HepG2 cells measured after 48 hrs by MTT assay. Format: functional, cell-based. To be noted: HepG2, 48 h.
The subject of series [8] is MCF7. The series is described as follows: Cell cycle arrest in human MCF7 cells assessed as accumulation of cells at S phase at 20 uM measured after 24 hrs by PI staining based flow cytometry assay (reference value: 25.64%). Type of series: functional. In general terms: A flow cytometer gives signals particle by particle.
In series [9] the test system is MCF7. As to the kind of experiment: Cell cycle arrest in human MCF7 cells assessed as accumulation of cells at G1 phase at 10 uM measured after 24 hrs by PI staining based flow cytometry assay (reference value: 59.45%). Format: functional.
Series [10] deals with MCF7. The series is described as follows: Induction of apoptosis in human MCF7 cells assessed as nuclear changes at 20 uM measured after 24 hrs by Hoechst 33342 staining based flourescence microscopy method. Format: functional, cell-based.
For series [11], the system named is MCF7. As to the kind of experiment: Cell cycle arrest in human MCF7 cells assessed as accumulation of cells at G2 phase at 10 uM measured after 24 hrs by PI staining based flow cytometry assay (reference value: 14.91%). Type of series: functional.
Series [12] deals with MCF7. As to the kind of experiment: Induction of apoptosis in human MCF7 cells assessed as viable cells at 20 uM measured after 24 hrs by AnnexinV/[…]-PI staining based flow cytometry method (Rvb =97 %). Format: functional. To be noted: read-out: Activity.
The test system of series [13] is MCF7. The series is described as follows: Induction of apoptosis in human MCF7 cells assessed as viable cells at 10 uM measured after 24 hrs by AnnexinV/[…]-PI staining based flow cytometry method (Rvb =97 %). Format: functional. To be noted: read-out: Activity.
Series [14] deals with MCF7. The series is described as follows: Antimigratory activity against human MCF7 cells at 5 uM after 24 hrs by inverted fluorescence microscope analysis relative to control (reference value: 82.9%). Format: functional.
In series [15] the test system is MCF7. As to the kind of experiment: Induction of apoptosis in human MCF7 cells assessed as cell shrinkage at 20 uM measured after 24 hrs by Hoechst 33342 staining based flourescence microscopy method. Format: functional.
Series [16] relates to MCF7. The series is described as follows: Induction of apoptosis in human MCF7 cells assessed as late apoptotic cells at 10 uM measured after 24 hrs by AnnexinV/[…]-PI staining based flow cytometry method (Rvb =1.28 %). Type of series: functional.
Series [17] relates to MCF7. As to the kind of experiment: Induction of mitochondrial membrane potential loss in human MCF7 cells at 5 to 10 uM measured after 24 hrs by JC-1 staining based flourescence microscopy method. The following applies: dose 5-10 µM. Type of series: functional, cell-based.
The test system of series [18] is MCF7. The series is described as follows: Induction of apoptosis in human MCF7 cells assessed as necrotic cells at 10 uM measured after 24 hrs by AnnexinV/[…]-PI staining based flow cytometry method (Rvb =1.28 %). Format: functional.
Series [19] relates to MCF7. The series is described as follows: Induction of apoptosis in human MCF7 cells assessed as increase of Bax protein level at 10 uM measured after 24 hrs by Western blot assay. Type of series: functional, cell-based. (In general: In western blotting, separated proteins are transferred to a membrane and probed.)
Series [20] has as its system MCF7. The series is described as follows: Induction of apoptosis in human MCF7 cells assessed as decrease of Bcl2 protein level at 10 uM measured after 24 hrs by Western blot assay. Format: functional, cell-based.
The subject of series [21] is MCF7. The series is described as follows: Anticlonogenic activity against human MCF7 cells assessed as inhibition of colony formation at 5 to 10 uM measured after 48 hrs by crystal violet staining based colony forming assay. Format: functional, cell-based. The following applies: dose 5-10 µM.
Series [22] has as its system MCF7. As to the kind of experiment: Induction of apoptosis in human MCF7 cells assessed as late apoptotic cells at 20 uM measured after 24 hrs by AnnexinV/[…]-PI staining based flow cytometry method (Rvb =1.28 %). Type of series: functional.
Series [23] deals with MCF7. The series is described as follows: Induction of apoptosis in human MCF7 cells assessed as necrotic cells at 20 uM measured after 24 hrs by AnnexinV/[…]-PI staining based flow cytometry method (Rvb =1.28 %). Type of series: functional.
Series [24] deals with MCF7. The series is described as follows: Antimigratory activity against human MCF7 cells at 10 uM after 24 hrs by inverted fluorescence microscope analysis relative to control (reference value: 82.9%). Format: functional.
Series [25] concerns MCF7. As to the kind of experiment: Cell cycle arrest in human MCF7 cells assessed as accumulation of cells at S phase at 10 uM measured after 24 hrs by PI staining based flow cytometry assay (reference value: 25.64%). Type of series: functional.
The subject of series [26] is MCF7. As to the kind of experiment: Cell cycle arrest in human MCF7 cells assessed as accumulation of cells at G2 phase at 20 uM measured after 24 hrs by PI staining based flow cytometry assay (reference value: 14.91%). Type of series: functional.
The test system of series [27] is MCF7. As to the kind of experiment: Cell cycle arrest in human MCF7 cells assessed as accumulation of cells at G1 phase at 20 uM measured after 24 hrs by PI staining based flow cytometry assay (reference value: 59.45%). Format: functional.
Series [28] relates to MCF7. As to the kind of experiment: Induction of apoptosis in human MCF7 cells assessed as early apoptotic cells at 20 uM measured after 24 hrs by AnnexinV/[…]-PI staining based flow cytometry method (Rvb =0.466 %). Type of series: functional.
In series [29] the test system is MCF7. As to the kind of experiment: Induction of apoptosis in human MCF7 cells assessed as decrease of COX-2 protein level at 10 uM measured after 24 hrs by Western blot assay. Format: functional, cell-based.
Series [30] relates to MCF7. The series is described as follows: Induction of apoptosis in human MCF7 cells assessed as increase of Bax/Bcl2 ratio at 10 uM measured after 24 hrs by Western blot assay. Type of series: functional, cell-based.
For series [31], the system named is MCF7. The series is described as follows: Induction of apoptosis in human MCF7 cells assessed as early apoptotic cells at 10 uM measured after 24 hrs by AnnexinV/[…]-PI staining based flow cytometry method (Rvb =0.466 %). Type of series: functional.
The test system of series [32] is MCF7. As to the kind of experiment: Induction of intracellular calcium level in human MCF7 cells at 5 to 10 uM measured after 24 hrs by Fluo-4AM staining based flourescence microscopy method. Format: functional, cell-based. The following applies: dose 5-10 µM.
In series [33] the test system is MCF7. As to the kind of experiment: Induction of apoptosis in human MCF7 cells assessed as increase in intracellular ROS levels at 10 uM measured after 24 hrs by DCFH-DA staining based flow cytometry method. Format: functional, cell-based.
The subject of series [34] is MCF7. As to the kind of experiment: Induction of apoptosis in human MCF7 cells at 10 uM measured after 24 hrs by AnnexinV/[…]-PI staining based flow cytometry method. Type of series: functional.
Series [35] concerns MCF7. As to the kind of experiment: Induction of apoptosis in human MCF7 cells at 20 uM measured after 24 hrs by AnnexinV/[…]-PI staining based flow cytometry method. Type of series: functional.

SMILES strings stand for the structures. Activity calls are given as the source filed them. The rule behind the calls is not given here. Bounds are passed on as bounds.

Turning to `COc1ccc(-c2oc3cc(OC)cc(OC)c3c(=O)c2OCCCCCN2C[C@H](O)[C@@H](O)[C@H](O)[C@H]2CO)cc1`, the IC50 in series [1], in [2], in series [3], in [4], in series [6] and in series [7] was above 10 µM in each case. For the same compound, the logP in series [5] amounted to 0.49.

In the case of `COc1ccc(-c2oc3cc(OC)cc(OC)c3c(=O)c2OCCCCCCCCCCCN2C[C@H](O)[C@@H](O)[C@H](O)[C@H]2CO)cc1`, the Activity in [8] turned out to be 56.48%; in series [9], 55.3%; in series [11], 18.07%; in series [14], 56.5%; in [16], 5.97%; in series [18] it was 4.03%. Also, the Activity was found to be 29.9% in series [22]; 4.83% in [23]; 46% in [24]; 26.6% in series [25]; 0.87% in series [26]; 42.64% in series [27]. Moreover, the Activity in series [28] is 37.9%; in series [31] it was 0.508%; in series [32] it was “Dose-Dependent Effect”; in [34], 6.48%; in series [35], 67.8%. Further, the IC50 came to 3.6 µM in [1]; 7.1 µM in [2]; 4.5 µM in series [3]; 7.8 µM in series [4]; 5.1 µM in series [6]; 7.7 µM in series [7]. Further, the result in [10], in [15], in series [17], in series [19], in series [20] and in [21] was Active. In addition, the outcome in [29], in series [30] and in series [33] was Active. In addition, the viability at 20 µM in [12] worked out at 27.3%. Also, in series [13], the viability at 10 µM amounted to 89.5%. In series [5], this compound returned a logP of 2.92.

Regarding `O=c1c(O)c(-c2ccc(O)cc2)oc2cc(O)cc(O)c12` [KAEMPFEROL], the Activity in series [8] amounted to 29.49%; in series [22] it was 2.43%; in series [23] it was 1.61%; in series [24], 79.9%; in series [26], 7.02%; in series [27] it was 53.49%. In addition, in [28], the Activity was 0.556%. In addition, the IC50 in series [1], in series [2], in [3], in series [4], in series [6] and in [7] was above 10 µM throughout. The viability at 20 µM in [12] was 95.4%. Also, the result in series [29] was Active.

Turning to `COc1ccc(-c2oc3cc(OC)cc(OC)c3c(=O)c2OCCCCCCCCN2C[C@H](O)[C@@H](O)[C@H](O)[C@H]2CO)cc1`, the IC50 in [1] was above 10 µM; in series [2] it was above 10 µM; in series [3], above 10 µM; in series [4], 8.8 µM; in [6], 7.6 µM; in series [7], above 10 µM. The logP in [5] stood at 1.65.

In the case of `OC[C@H]1NC[C@H](O)[C@@H](O)[C@@H]1O` [DUVOGLUSTAT], the Activity turned out to be 31.41% in series [8]; 1.75% in series [22]; 1.19% in [23]; 78.4% in series [24]; 19% in series [26]; 49.59% in series [27]. Further, the Activity in series [28] amounted to 0.409%. Besides, the IC50 in series [1], in [2], in series [3], in series [4], in series [6] and in [7] was above 10 µM in each case. Also, the viability at 20 µM in series [12] came to 96.6%. Further, the logP in series [5] was -0.68.
